Numbers after ± are expanded uncertainties.
Conditions: Liquid, Falling or rolling sphere viscometry

CCCCC(CC)COC(=O)c1ccc(C(=O)OCC(CC)CCCC)c(C(=O)OCC(CC)CCCC)c1 (stereo not drawn) [tris(2-ethylhexyl) trimellitate]
Conditions | viscosity [mPa·s]
315.1 K, 8710 kPa | 92.64 ± 3.6
315.1 K, 23090 kPa | 125 ± 5.5
315.1 K, 36550 kPa | 163.5 ± 8.2
315.1 K, 69620 kPa | 301.3 ± 20
315.1 K, 71420 kPa | 310.8 ± 20
315.1 K, 104200 kPa | 540.6 ± 44
315.1 K, 138800 kPa | 934 ± 93
347.1 K, 9180 kPa | 22.72 ± 0.97
347.1 K, 22490 kPa | 28.88 ± 1.3
347.1 K, 36420 kPa | 36.54 ± 1.7
347.1 K, 70160 kPa | 62.43 ± 3
347.1 K, 70370 kPa | 62.32 ± 3
347.1 K, 104100 kPa | 101.1 ± 5.5
347.1 K, 138500 kPa | 159.1 ± 10
347.1 K, 173500 kPa | 244.9 ± 14
347.1 K, 219900 kPa | 420.8 ± 31
387.5 K, 11780 kPa | 7.262 ± 0.27
387.5 K, 22080 kPa | 8.542 ± 0.32
387.5 K, 36110 kPa | 10.48 ± 0.4
387.5 K, 70650 kPa | 16.6 ± 0.66
387.5 K, 72750 kPa | 17.21 ± 0.67
387.5 K, 104700 kPa | 25.32 ± 1
387.5 K, 140100 kPa | 37.04 ± 1.6
387.5 K, 173400 kPa | 51.68 ± 2.3
387.5 K, 215400 kPa | 77.27 ± 3.1
428.6 K, 9400 kPa | 3.143 ± 0.11
428.6 K, 21670 kPa | 3.632 ± 0.12
428.6 K, 36940 kPa | 4.46 ± 0.15
428.6 K, 70470 kPa | 6.643 ± 0.23
428.6 K, 105400 kPa | 9.7 ± 0.33
428.6 K, 139500 kPa | 13.2 ± 0.46
428.6 K, 172300 kPa | 17.63 ± 0.62
428.6 K, 203200 kPa | 22.51 ± 0.72
428.6 K, 237600 kPa | 29.74 ± 0.96
477.8 K, 11620 kPa | 1.649 ± 0.053
477.8 K, 23680 kPa | 1.916 ± 0.062
477.8 K, 37690 kPa | 2.232 ± 0.072
477.8 K, 37760 kPa | 2.235 ± 0.072
477.8 K, 70980 kPa | 3.227 ± 0.11
477.8 K, 105500 kPa | 4.336 ± 0.14
477.8 K, 106000 kPa | 4.336 ± 0.14
477.8 K, 139300 kPa | 5.743 ± 0.19
477.8 K, 174200 kPa | 7.352 ± 0.24
477.8 K, 196800 kPa | 8.536 ± 0.29
477.8 K, 219300 kPa | 10.02 ± 0.32
477.8 K, 240800 kPa | 11.62 ± 0.39
527.4 K, 10410 kPa | 1.015 ± 0.033
527.4 K, 23110 kPa | 1.161 ± 0.037
527.4 K, 36430 kPa | 1.333 ± 0.043
527.4 K, 69910 kPa | 1.79 ± 0.058
527.4 K, 105200 kPa | 2.466 ± 0.08
527.4 K, 105700 kPa | 2.469 ± 0.08
527.4 K, 139000 kPa | 3.097 ± 0.1
527.4 K, 172900 kPa | 3.835 ± 0.13
527.4 K, 200700 kPa | 4.578 ± 0.15
527.4 K, 201600 kPa | 4.601 ± 0.15
527.4 K, 223700 kPa | 5.224 ± 0.17
527.4 K, 241600 kPa | 5.761 ± 0.19

Reference: the NIST ThermoML archive (doi:10.1021/acs.jced.6b00128)
